Reference: US9657288B2, “Connector compound peptide phage display” (BICYCLE THERAPEUTICS LIMITED, priority 2008, dated 2017)
*1 amine or outer side, *2 acyl side, *3 side chain or, on linkers, in order; H or OH if unused. Where a SMILES comes first, the peptide text is derived from it. Bridges are numbered along the chain shown (N, C = ends). TBMB = c1c(C[*:1])cc(C[*:3])cc1C[*:2]

Columns and labels:
plasma kallikrein [1] = molecular target: T1, plasma kallikrein (Homo sapiens, UniProt P03952); assay: Activity measurement of chemically synthesized human plasma kallikrein inhibitors (residual activity, Z-Phe-Arg-AMC); format: biochemical; set-up: purchased Innovative Research (Southfiled, Mich., USA); settings: for IC50: synthetic peptide after modification with TBMB, human plasma kallikrein 0.1 nM, read-out: IC50 (nM) Bi-cyclic peptide
T1 sequence (P03952 391-638 limits assumed): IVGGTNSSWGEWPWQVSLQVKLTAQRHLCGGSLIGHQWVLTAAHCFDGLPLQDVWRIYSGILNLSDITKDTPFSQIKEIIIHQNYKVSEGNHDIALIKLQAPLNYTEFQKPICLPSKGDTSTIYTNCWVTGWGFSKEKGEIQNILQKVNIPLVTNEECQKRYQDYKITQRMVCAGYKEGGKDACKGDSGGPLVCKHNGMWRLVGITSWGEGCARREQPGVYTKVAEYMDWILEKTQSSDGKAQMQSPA
T1 sequence (P03952 20-390 partner limits assumed): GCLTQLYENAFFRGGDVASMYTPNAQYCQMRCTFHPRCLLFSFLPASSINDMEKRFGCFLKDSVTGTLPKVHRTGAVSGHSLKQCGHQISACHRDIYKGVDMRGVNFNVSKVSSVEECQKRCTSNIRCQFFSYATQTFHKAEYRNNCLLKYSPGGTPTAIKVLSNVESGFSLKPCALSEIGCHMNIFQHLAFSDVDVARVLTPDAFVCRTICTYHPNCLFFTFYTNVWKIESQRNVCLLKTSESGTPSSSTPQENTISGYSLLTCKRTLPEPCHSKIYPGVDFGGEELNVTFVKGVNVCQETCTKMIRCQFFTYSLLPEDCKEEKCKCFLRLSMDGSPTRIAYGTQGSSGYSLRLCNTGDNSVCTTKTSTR
Description: (§1) Recombinant mouse plasma kallikrein from R&D Systems (Minneapolis, Minn., USA) with a signal peptide was proteolytically activated with 0.5 mg/ml thermolysin at 37° C. for 1 hr. […] Inhibitor hydrolysed in one binding loop was generated by incubation of TBMB modified peptide PK15 with human plasma kallikrein at a molar ration of 5:1 for 24 hours at 37° C. and subsequent heat inactivation of the enzyme at 60° C. (30 min). Apparent Ki values were calculated according to the Cheng and Prusoff equation (Cheng, Y. and Prusoff, W. H., Biochem. Pharmacol., 1973).
as §1, with “ratio” for “ration”, “equation.” for “equation (Cheng, Y. and Prusoff, W. H., Biochem. Pharmacol., 1973).”

[2] = tested on: thrombin generation in human plasma; assay: Contact activation in human plasma: thrombin activation time triggered by actin; format: biochemical; settings: for thrombin formation in human plasma: 50 nM inhibitor concentration
[3] = tested on: factor XIIa and plasma kallikrein in human plasma; assay: Activation of factor XIIa and plasma kallikrein in human plasma after kaolin (H-D-Pro-Phe-Arg-pNA); format: biochemical; settings: for IC50: human plasma, kaolin, read-out: inhibitor concentration required to reduce factor XIIa activity by 50%
Description: (§2) Normal human plasma from single donors was purchased from 3H Biomedical (Uppsala, Sweden). The plasma was centrifuged at 1500×g at 20° C. for 15 minutes to obtain platelet-poor plasma (PPP). Aliquots of the PPP were stored in polypropylene tubes at −80° C. […] Activation of factor XIIa and human plasma kallikrein were measured as follows. 2 μg kaolin was added to the plasma samples, mixed well and incubated for 20 minutes at 37° C. The samples were diluted 250-fold in 50 mM Tris-Cl pH 7.8, 150 mM NaCl. Plasma kallikrein-like activity was measured with the chromogenic substrate H-D-Pro-Phe-Arg-pNA (100 μM; Bachem, Bubendorf, Switzerland) using an absorption plate reader (absorption at […]; Molecular Devices, Sunnyvale, Calif., USA).
as §2, with “was” for “and human plasma kallikrein were”, “μg of” for “μg”, “H-D-Pro-Phe-Arg (SEQ ID No. 37)-pNA” for “H-D-Pro-Phe-Arg-pNA”, “USA). The same chromogenic substrate is also recognized and modified by plasma kallikrein.” for “USA).”

human thrombin = molecular target: T2, human thrombin (Homo sapiens, UniProt P00734); assay: Specificity measurement, thrombin; format: biochemical; settings: highest concentration tested 10 μM
T2 construct: the activity of human thrombin (2 nM; Innovative Research, Southfiled, Mich., USA); purchased Innovative Research (Southfiled, Mich., USA)

plasma kallikrein [4] = molecular target: T1, plasma kallikrein; assay: Hydrolysis of the inhibitor on incubation with human plasma kallikrein; format: in vitro ADME; set-up: purchased Innovative Research (Southfiled, Mich., USA)
Description: as §1
as §1, with “ratio” for “ration”, “equation.” for “equation (Cheng, Y. and Prusoff, W. H., Biochem. Pharmacol., 1973).”

mouse plasma kallikrein = molecular target: T3, mouse plasma kallikrein (Mus musculus, UniProt P26262); assay: Specificity measurement, mouse plasma kallikrein; format: biochemical; settings: highest concentration tested 10 μM
T3 construct: purchased R&D Systems (Minneapolis, Minn., USA)
T3 sequence (P26262 391-638 limits assumed): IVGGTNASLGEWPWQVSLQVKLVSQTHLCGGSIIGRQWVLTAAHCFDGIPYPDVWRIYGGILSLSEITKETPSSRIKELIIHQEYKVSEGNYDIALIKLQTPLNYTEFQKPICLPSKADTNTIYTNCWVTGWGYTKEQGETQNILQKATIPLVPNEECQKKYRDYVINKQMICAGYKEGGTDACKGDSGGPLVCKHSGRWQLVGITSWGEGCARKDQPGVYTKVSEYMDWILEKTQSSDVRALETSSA
T3 sequence (P26262 20-390 partner limits assumed): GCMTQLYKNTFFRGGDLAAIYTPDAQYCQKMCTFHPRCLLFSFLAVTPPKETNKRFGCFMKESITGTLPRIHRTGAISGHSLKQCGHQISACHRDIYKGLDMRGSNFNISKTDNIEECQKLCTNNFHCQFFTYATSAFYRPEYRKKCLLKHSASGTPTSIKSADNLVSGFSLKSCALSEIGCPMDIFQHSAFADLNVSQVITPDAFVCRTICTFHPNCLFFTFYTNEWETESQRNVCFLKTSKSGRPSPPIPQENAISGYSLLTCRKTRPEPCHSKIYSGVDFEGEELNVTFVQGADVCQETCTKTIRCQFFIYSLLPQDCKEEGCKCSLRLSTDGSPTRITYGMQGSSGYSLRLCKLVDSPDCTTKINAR
Description: as §1
as §1, with “ratio” for “ration”, “equation.” for “equation (Cheng, Y. and Prusoff, W. H., Biochem. Pharmacol., 1973).”

factor XIa = molecular target: T4, factor XIa (Homo sapiens, UniProt P03951); assay: Specificity measurement, factor XIa; format: biochemical; settings: highest concentration tested 10 μM
T4 construct: factor XIa (0.8 nM; Innovative Research, Southfiled, Mich., USA); purchased Innovative Research (Southfiled, Mich., USA)
T4 sequence (P03951 388-625 limits assumed): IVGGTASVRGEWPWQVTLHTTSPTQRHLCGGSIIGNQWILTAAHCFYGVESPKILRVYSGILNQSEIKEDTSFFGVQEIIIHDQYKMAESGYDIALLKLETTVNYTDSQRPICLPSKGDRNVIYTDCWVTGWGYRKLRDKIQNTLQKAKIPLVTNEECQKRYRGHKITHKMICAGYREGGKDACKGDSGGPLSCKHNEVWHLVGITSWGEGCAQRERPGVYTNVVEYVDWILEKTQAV
T4 sequence (P03951 19-387 partner limits assumed): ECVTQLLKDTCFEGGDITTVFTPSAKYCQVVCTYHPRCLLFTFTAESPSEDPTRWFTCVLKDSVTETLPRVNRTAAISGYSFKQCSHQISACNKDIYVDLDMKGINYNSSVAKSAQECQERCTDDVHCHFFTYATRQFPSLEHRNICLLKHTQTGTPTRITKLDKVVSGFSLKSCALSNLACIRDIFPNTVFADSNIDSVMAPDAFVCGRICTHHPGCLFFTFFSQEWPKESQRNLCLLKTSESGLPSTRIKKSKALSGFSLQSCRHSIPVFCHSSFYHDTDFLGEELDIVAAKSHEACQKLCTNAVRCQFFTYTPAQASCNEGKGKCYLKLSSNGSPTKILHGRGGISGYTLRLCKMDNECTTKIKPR

Chymotrypsin = Chymotrypsin (Bos taurus, UniProt P00766); settings: reference 5; read-out: Affinity K1; cited from earlier work
DNase II = settings: reference 12; read-out: Affinity K1; cited from earlier work
[5] = molecular target: Urokinase-type plasminogen activator (uPA) (Mus musculus, UniProt P06869); settings: reference 4; read-out: Affinity K1; cited from earlier work
Urokinase-type plasminogen activator (uPA) (Mus musculus, UniProt P06869), sequence (P06869 21-433): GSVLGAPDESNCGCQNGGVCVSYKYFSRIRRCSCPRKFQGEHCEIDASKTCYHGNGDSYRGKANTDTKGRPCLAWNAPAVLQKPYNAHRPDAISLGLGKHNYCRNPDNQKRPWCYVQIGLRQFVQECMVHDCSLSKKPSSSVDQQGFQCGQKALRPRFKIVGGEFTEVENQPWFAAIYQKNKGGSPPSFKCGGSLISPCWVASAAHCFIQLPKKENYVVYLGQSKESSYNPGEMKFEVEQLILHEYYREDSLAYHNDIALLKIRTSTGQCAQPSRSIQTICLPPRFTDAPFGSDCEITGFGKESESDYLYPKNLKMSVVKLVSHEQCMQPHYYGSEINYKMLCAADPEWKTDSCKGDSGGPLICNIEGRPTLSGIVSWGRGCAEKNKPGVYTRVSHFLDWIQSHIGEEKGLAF

Pancreatic lipase = molecular target: T5, Pancreatic lipase (Sus scrofa, UniProt P00591); settings: reference 10; read-out: Affinity IC50; cited from earlier work
T5 sequence (P00591 1-450): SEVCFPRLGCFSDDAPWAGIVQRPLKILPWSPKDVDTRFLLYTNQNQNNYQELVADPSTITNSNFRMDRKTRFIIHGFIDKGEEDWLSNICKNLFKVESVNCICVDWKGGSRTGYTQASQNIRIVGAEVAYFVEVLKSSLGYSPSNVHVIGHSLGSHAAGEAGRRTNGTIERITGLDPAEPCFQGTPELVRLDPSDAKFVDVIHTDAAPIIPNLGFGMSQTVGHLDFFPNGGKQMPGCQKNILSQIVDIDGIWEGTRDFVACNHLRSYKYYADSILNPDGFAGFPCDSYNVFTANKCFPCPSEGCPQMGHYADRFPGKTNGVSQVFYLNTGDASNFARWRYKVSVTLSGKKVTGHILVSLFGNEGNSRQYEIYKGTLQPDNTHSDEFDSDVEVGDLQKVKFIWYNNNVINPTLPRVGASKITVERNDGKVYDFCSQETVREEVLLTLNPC

[6] = molecular target: Urokinase-type plasminogen activator (uPA) (Homo sapiens, UniProt P00749); settings: reference 3; read-out: Affinity K1; cited from earlier work
Beta-lactamase = Beta-lactamase (Stenotrophomonas maltophilia, UniProt P52700); settings: reference 11; read-out: Affinity IC50; cited from earlier work
Beta-lactamase, sequence (P52700 34-290): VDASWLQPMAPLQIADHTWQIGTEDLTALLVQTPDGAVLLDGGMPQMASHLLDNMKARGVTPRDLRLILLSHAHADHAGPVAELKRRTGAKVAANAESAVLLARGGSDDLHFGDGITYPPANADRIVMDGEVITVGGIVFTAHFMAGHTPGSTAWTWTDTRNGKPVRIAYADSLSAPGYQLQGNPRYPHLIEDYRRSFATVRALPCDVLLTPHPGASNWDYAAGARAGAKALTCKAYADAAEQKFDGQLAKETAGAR

TF-fVII = TF-fVII (Homo sapiens, UniProt P08709); settings: reference 6; read-out: Affinity IC50; cited from earlier work
TF-fVII, sequence (P08709 213-466 limits assumed): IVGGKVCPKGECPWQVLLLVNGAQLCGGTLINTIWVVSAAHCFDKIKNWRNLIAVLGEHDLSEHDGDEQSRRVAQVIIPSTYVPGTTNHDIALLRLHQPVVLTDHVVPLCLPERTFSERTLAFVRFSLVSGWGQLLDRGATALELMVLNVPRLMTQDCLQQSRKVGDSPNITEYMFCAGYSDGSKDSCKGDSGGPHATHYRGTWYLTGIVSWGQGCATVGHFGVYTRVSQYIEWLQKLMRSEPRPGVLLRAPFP
TF-fVII, sequence (P08709 61-212 partner limits assumed): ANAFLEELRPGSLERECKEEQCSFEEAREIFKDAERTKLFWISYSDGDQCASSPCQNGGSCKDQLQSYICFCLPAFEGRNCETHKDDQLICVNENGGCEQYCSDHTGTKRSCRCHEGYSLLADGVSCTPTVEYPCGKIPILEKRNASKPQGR
TF-fVII, sequence (P13726 33-295 partner): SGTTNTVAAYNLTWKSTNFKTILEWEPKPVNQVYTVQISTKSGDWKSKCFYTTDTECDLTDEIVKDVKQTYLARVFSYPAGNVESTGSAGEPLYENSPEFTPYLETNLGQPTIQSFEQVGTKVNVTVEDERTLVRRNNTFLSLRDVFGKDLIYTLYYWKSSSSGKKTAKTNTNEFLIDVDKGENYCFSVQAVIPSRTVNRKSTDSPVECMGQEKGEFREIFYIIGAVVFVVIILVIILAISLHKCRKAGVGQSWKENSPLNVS

[7] = molecular target: Angiotensin converting enzyme 2 (ACE2) (Homo sapiens, UniProt Q9BYF1); settings: reference 7; read-out: Affinity K1; cited from earlier work
ErbB-2 = ErbB-2 (Homo sapiens, UniProt P04626); settings: reference 8; read-out: Affinity K1; cited from earlier work
Human kallikrein 2 = Human kallikrein 2 (Homo sapiens, UniProt P20151); settings: reference 2; read-out: Affinity IC50; cited from earlier work
Human kallikrein 2, sequence (P20151 25-261): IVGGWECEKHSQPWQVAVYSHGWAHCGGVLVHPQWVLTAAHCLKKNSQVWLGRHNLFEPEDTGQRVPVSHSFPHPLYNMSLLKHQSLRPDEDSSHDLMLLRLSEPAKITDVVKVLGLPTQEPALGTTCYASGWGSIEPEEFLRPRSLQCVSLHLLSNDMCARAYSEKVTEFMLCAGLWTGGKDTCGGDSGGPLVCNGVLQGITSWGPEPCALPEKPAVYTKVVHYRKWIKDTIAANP

Urease = Urease (Helicobacter pylori, UniProt P14916+P69996); settings: read-out: Affinity IC50; reference 9; cited from earlier work
Urease, sequence (P69996 whole entry): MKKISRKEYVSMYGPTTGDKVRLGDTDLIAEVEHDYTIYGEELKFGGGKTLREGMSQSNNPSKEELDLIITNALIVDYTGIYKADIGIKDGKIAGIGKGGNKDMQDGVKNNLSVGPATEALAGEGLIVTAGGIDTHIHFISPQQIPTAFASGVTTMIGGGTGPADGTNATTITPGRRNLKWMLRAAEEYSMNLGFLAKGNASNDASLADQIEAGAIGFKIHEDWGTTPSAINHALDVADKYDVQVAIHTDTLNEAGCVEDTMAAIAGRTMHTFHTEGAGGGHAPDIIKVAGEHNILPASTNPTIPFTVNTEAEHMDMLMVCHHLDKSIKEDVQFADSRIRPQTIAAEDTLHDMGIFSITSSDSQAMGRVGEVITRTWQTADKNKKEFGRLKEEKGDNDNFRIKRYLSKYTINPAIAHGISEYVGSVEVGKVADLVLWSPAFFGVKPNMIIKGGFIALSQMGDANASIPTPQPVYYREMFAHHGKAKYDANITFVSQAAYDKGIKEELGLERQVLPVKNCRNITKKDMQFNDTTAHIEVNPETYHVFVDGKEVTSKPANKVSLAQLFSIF
Urease, sequence (P14916 whole entry): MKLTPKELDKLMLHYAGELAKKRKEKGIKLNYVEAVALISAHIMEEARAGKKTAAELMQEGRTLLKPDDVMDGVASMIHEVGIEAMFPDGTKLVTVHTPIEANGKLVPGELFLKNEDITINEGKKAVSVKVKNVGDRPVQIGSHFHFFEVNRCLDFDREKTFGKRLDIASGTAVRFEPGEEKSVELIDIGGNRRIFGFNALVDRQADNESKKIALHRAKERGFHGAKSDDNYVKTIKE

[8] = in vivo; cited from earlier work

Q: With `CC[C@H](C)[C@@H]1NC(=O)[C@H](CCC(=O)O)NC(=O)[C@H]([C@@H](C)CC)NC(=O)[C@@H]2CCCN2C(=O)[C@@H]2CSCc3cc(cc(c3)CSC[C@@H](C(=O)NCC(N)=O)NC(=O)[C@@H]3CCCN3C(=O)[C@H](Cc3ccccc3)NC1=O)CSC[C@H](NC(=O)[C@H](C)N)C(=O)N[C@@H](CO)C(=O)N[C@@H]([C@@H](C)O)C(=O)N[C@@H](CCC(=O)O)C(=O)N[C@@H](CCCNC(=N)N)C(=O)N[C@@H](CCCNC(=N)N)C(=O)N[C@@H](Cc1ccc(O)cc1)C(=O)N2` [PK4] (H-ACSTERRYCPIEIFPCG-NH2; linker 2-9-16 via TBMB) as the molecule, how does the IC50 (plasma kallikrein [1]) read?
A: 33 nM

Q: With `CSCC[C@@H]1NC(=O)[C@H](CC(C)C)NC(=O)[C@H](CC(=O)O)NC(=O)[C@H](CCC(=O)O)NC(=O)[C@H](Cc2ccc(O)cc2)NC(=O)[C@@H]2CSCc3cc(cc(c3)CSC[C@@H](C(=O)NCC(N)=O)NC(=O)[C@H](Cc3c[nH]c4ccccc34)NC1=O)CSC[C@H](NC(=O)[C@H](C)N)C(=O)N[C@@H](C)C(=O)N1CCC[C@H]1C(=O)N[C@@H](Cc1c[nH]c3ccccc13)C(=O)N[C@@H](CCCNC(=N)N)C(=O)N[C@@H]([C@@H](C)O)C(=O)N[C@@H](C)C(=O)N2` [PK6] (H-ACAPWRTACYEDLMWCG-NH2; linker 2-9-16 via TBMB) as the molecule, how does the IC50 (plasma kallikrein [1]) read?
A: 21.2 nM

Q: With `CC(C)[C@@H]1NC(=O)[C@H](CCCNC(=N)N)NC(=O)[C@@H]2CSCc3cc(cc(c3)CSC[C@@H](C(=O)NCC(N)=O)NC(=O)[C@@H]3CCCN3C(=O)[C@H]([C@@H](C)O)NC(=O)[C@H](Cc3c[nH]c4ccccc34)NC(=O)[C@H](CC(N)=O)NC1=O)CSC[C@H](NC(=O)[C@H](C)N)C(=O)NCC(=O)N[C@@H]([C@@H](C)O)C(=O)NCC(=O)N[C@@H](CCC(=O)O)C(=O)NCC(=O)N[C@@H](CCCNC(=N)N)C(=O)N2` [PK13] (H-ACGTGEGRCRVNWTPCG-NH2; linker 2-9-16 via TBMB) as the molecule, how does the IC50 (plasma kallikrein [1]) read?
A: 39.1 nM

Q: What does the source list for `CC(C)C[C@@H]1NC(=O)[C@H](C)NC(=O)[C@H](CCC(=O)O)NC(=O)[C@H](CC(=O)O)NC(=O)[C@H](C)NC(=O)[C@@H]2CCCN2C(=O)[C@@H]2CSCc3cc(cc(c3)CSC[C@@H](C(=O)NCC(N)=O)NC1=O)CSC[C@H](NC(=O)[C@H](C)N)C(=O)N[C@@H](CO)C(=O)N[C@@H](CC(=O)O)C(=O)N[C@@H](CCCNC(=N)N)C(=O)N[C@@H](Cc1ccccc1)C(=O)N[C@@H](CCCNC(=N)N)C(=O)N[C@@H](CC(N)=O)C(=O)N2` [PK15] (H-ACSDRFRNCPADEALCG-NH2; linker 2-9-16 via TBMB (inferred))?
A: thrombin formation in human plasma [2]: delayed thrombin formation; lag time of thrombin generation compared to control sample (FIG. 8) ([2]; 5, 50, 500 or 5000 nM): dose-dependent prolongation of lag time; interruption of intrinsic coagulation pathway / contact activation in human plasma ex vivo [3]: efficiently interrupted the intrinsic coagulation pathway; activation of factor XIIa and plasma kallikrein in human plasma ([3]; 5 μM, plasma of three donors): essentially be suppressed; IC50 [3]: 160 nM; Ki (plasma kallikrein [1]): 1.5 nM; IC50 (plasma kallikrein [1]): 1.7 nM; inhibition of human thrombin (human thrombin): did not inhibit; cleavage of a peptide bond on incubation with kallikrein (plasma kallikrein [4]; 24 h at 37° C.): 90%; state after prolonged incubation with human plasma kallikrein (plasma kallikrein [4]; cleaved in one of the loops): remained intact and active; inhibition of mouse plasma kallikrein (mouse plasma kallikrein): did not inhibit; inhibition of human factor XIa (factor XIa): did not inhibit

Q: For CCFSWRCRC, which Ki (Chymotrypsin) is on record?
A: 1000 nM

Q: With CLRLLQWFLWAC as the molecule, how does the Ki (DNase II) read?
A: 200 nM

Q: Which Ki [5] does the source give for CPAYSRYLDC here?
A: 400 nM

Q: For CQPHPGQTC, which IC50 (Pancreatic lipase) is on record?
A: 16000 nM

Q: With CSWRGLENHRMC as the molecule, how does the Ki [6] read?
A: 6700 nM

Q: Which IC50 (Beta-lactamase) does the source give for CVHSPNREC here?
A: 9000 nM

Q: For EEWEVLCWTWETCER, which IC50 (TF-fVII) is on record?
A: 1.5 nM

Q: With GDYSHCSPLRYYPWWKCTYPDP as the molecule, how does the Ki [7] read?
A: 2.8 nM

Q: With KCCYSL as the molecule, how does the Ki (ErbB-2) read?
A: 30000 nM

Q: For SRFKVWWAAF, which IC50 (Human kallikrein 2) is on record?
A: 3400 nM

Q: Which IC50 (Urease) does the source give for YDFYWW here?
A: 30000 nM

Q: With aprotinin as the molecule, how does the adverse effects [8] read?
A: anaphylaxis and renal toxicity

Q: And the “thrombin formation in human plasma” value [2]?
A: had no effect

Q: And the “lag time of thrombin activation” value ([2]; 5 μM inhibitor concentration)?
A: more prolonged by aprotinin than by the small molecule inhibitor

Q: And the IC50 [3]?
A: 5000 nM
